Entries after “also recorded” stand apart in the source; their conditions may differ. Counter-ions that a name gives are not always drawn. Like-named read-outs stand apart in the source and are kept apart here. Each block holds one compound with its values, some of them ahead of it.
Experiments:
[1] = molecular target: T1, human TAS2R43 (Homo sapiens, UniProt P59537); test: Ca2+ flux assay, transiently transfected cells with Gα16-gust44; conditions: for calcium flux response of human TAS2R43: PTC 100 μM, C4-HSL, aloin 300 μM, denatonium 1 mM, saccharin 6.7 mM; for Hill Slope TAS2R43 human: calcium flux dose response
T1 sequence (P59537 1-309): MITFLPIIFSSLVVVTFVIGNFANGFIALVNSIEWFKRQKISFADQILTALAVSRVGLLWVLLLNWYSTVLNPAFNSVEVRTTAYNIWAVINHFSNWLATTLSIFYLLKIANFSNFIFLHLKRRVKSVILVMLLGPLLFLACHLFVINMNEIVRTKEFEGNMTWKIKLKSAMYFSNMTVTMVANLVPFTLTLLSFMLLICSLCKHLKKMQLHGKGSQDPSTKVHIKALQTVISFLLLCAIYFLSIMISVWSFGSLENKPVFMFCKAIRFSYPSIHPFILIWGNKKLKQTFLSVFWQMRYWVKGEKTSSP

[2] = molecular target: cat Tas2r43 (Felis catus, UniProt A0ABI8A390); test: as above; conditions: for calcium flux response of cat Tas2r43: PTC 100 μM, aloin 300 μM, denatonium 1 mM, saccharin 6.7 mM; for Hill Slope Tas2r43 cat: calcium flux dose response
[3] = molecular target: T1, human TAS2R43; design: created similarly, expressing full-length receptor under the control of a CMV promoter; expressed in transfected cells; host or cells: mammalian cells (ATCC CRL-11268), co-transfected with Gα16-gust44; conditions: published value for human TAS2R43; cited from earlier work
[4] = molecular target: T2, human TAS2R16 (Homo sapiens, UniProt Q9NYV7); test: Ca2+ flux assay, negative control receptor; conditions: PTC 100 μM, C4-HSL
T2 sequence (Q9NYV7 1-291): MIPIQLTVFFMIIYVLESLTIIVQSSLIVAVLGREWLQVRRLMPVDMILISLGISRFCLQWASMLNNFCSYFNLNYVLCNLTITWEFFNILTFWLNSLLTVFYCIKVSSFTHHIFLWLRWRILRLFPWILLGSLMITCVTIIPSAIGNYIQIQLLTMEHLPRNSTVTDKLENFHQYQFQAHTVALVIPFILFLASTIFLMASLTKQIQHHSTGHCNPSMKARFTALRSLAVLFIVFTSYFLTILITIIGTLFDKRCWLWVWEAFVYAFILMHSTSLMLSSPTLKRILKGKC

[5] = molecular target: T3, human TAS2R38 (Homo sapiens, UniProt P59533); test: Ca2+ flux assay, transiently transfected cells with Gα16-gust44; conditions: for calcium flux response of human TAS2R38: PTC 100 μM, PROP 30 μM, C4-HSL 200 μM; for Hill Slope TAS2R38 human: calcium flux dose response
T3 sequence (P59533 1-333): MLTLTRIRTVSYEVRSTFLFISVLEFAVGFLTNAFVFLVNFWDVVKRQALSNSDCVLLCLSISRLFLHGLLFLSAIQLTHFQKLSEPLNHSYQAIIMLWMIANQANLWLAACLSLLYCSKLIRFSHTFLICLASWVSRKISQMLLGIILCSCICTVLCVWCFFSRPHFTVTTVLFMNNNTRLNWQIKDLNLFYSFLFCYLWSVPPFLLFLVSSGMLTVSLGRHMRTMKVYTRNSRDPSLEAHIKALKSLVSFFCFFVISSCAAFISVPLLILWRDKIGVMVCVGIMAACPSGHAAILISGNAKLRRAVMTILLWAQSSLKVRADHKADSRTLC

[6] = molecular target: T4, cat Tas2r38 (Felis catus, UniProt Z9BUK5U3L3); test: as above; conditions: for calcium flux response of cat Tas2r38: PTC 100 μM, PROP 30 μM, C4-HSL 200 μM
T4 sequence (Z9BUK5U3L3 1-334): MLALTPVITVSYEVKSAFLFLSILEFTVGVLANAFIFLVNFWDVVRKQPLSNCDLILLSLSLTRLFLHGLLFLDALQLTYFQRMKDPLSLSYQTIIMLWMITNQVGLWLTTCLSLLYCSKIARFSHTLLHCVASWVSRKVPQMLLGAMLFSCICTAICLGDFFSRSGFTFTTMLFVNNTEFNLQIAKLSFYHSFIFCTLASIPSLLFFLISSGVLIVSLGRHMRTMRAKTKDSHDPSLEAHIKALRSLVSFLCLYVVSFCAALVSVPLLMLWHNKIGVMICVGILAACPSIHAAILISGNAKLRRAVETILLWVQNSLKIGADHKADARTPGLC

[7] = molecular target: T3, human TAS2R38; design: created similarly, expressing full-length receptor under the control of a CMV promoter; expressed in transfected cells; host or cells: mammalian cells (ATCC CRL-11268), co-transfected with Gα16-gust44; method as in PMID 15723792; conditions: published value for human TAS2R38; cited from earlier work
[8] = test system: cat Tas2r43; test: Ca2+ flux assay, transiently transfected cells with Gα16-gust44; conditions: PTC 100 μM, aloin 300 μM, denatonium 1 mM, saccharin 6.7 mM
[9] = molecular target: T5, human TAS2R31 (Homo sapiens, UniProt P59538); test: Ca2+ flux assay, probenecid specificity control; assay type: cell-based; conditions: 1 mM probenecid, one hour pre-incubation
T5 construct: expressed in transfected cells; host or cells: transiently transfected cells expressing the receptor and Gα16-gust44
T5 sequence (P59538 1-309): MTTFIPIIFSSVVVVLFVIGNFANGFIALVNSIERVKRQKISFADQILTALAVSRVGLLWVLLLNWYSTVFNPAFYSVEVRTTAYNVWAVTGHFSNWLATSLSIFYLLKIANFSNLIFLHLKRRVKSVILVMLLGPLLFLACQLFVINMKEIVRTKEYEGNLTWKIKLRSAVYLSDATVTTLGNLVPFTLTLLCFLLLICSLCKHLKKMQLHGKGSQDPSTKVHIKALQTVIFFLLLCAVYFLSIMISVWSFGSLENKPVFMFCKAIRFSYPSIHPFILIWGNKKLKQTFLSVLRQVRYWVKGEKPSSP

[10] = 1 mM probenecid, one hour pre-incubation, 33 μM PTC
[11] = 1 mM probenecid, one hour pre-incubation, 300 μM aloin
[12] = 1 mM probenecid, one hour pre-incubation, 1 mM denatonium

Sequence of cat Tas2r43 (Felis catus, UniProt A0ABI8A390) (A0ABI8A390 entry or part of it): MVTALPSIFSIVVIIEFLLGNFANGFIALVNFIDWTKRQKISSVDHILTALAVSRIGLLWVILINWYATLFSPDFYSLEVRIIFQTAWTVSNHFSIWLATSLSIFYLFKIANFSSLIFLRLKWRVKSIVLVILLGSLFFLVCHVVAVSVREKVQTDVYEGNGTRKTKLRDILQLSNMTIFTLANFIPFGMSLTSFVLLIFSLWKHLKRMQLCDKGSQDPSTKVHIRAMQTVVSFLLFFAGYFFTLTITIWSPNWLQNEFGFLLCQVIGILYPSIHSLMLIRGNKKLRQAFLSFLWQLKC

EC50 [1]: 35 µM | Hill Slope TAS2R43 human [1]: 0.8 | Hill Slope Tas2r43 cat [2]: 1.0 | fold more sensitive, human TAS2R43 vs cat Tas2r43 ([2]; from EC50 values): about 10 fold
SMILES: O=C1c2c(O)cccc2C([C@@H]2O[C@H](CO)[C@@H](O)[C@H](O)[C@H]2O)c2cc(CO)cc(O)c21 (stereo partly shown) [Aloin, aloin]
calcium flux response of human TAS2R43 [1]: responded | calcium flux response of cat Tas2r43 [2]: responded | EC50 [3]: 1.2 µM

SMILES: CCCC(=O)N[C@H]1CCOC1=O [C4-HSL]
calcium flux response of human TAS2R16 [4]: no response | calcium flux response of human TAS2R38 [5]: responded weakly but specifically | calcium flux response of cat Tas2r38 [6]: responded weakly but specifically | calcium flux response of human TAS2R43 [1]: no response

SMILES: CC[N+](CC)(CC(=O)Nc1c(C)cccc1C)Cc1ccccc1 [Denatonium, denatonium benzoate]
EC50 [1]: 1210 µM | calcium flux response of human TAS2R43 [1]: responded | Hill Slope TAS2R43 human [1]: 1.3 | calcium flux response of cat Tas2r43 [2]: responded | Hill Slope Tas2r43 cat [2]: 1.7 | fold lower EC50, cat Tas2r43 vs human TAS2R43 ([2]; from EC50 values): greater than 5 fold | EC50 [3]: 300 µM

EC50 [5]: 2.2 µM | Hill Slope TAS2R38 human [5]: 1.59
SMILES: CCCc1cc(=O)[nH]c(=S)[nH]1 [PROP, 6-propyl-2-thiouracil]
calcium flux response of human TAS2R38 [5]: responded | EC50 [7]: 2.1 µM

SMILES: NC(=S)Nc1ccccc1 [PTC, phenylthiocarbamide]
calcium flux response of human TAS2R16 [4]: did not respond | EC50 [5]: 2.3 µM | calcium flux response of human TAS2R38 [5]: strong calcium flux | peak fluorescence over baseline ([5]; PTC at 100 μM): 27% | Hill Slope TAS2R38 human [5]: 1.0 | calcium flux response of cat Tas2r38 [6]: strong calcium flux | peak fluorescence over baseline ([6]; PTC at 100 μM): 40% | Hill Slope Tas2r38 cat ([6]; calcium flux dose response): 2.6 | fold less concentration sensitive, cat Tas2r38 vs human TAS2R38 ([6]; from EC50 values): at least 10 fold | EC50 ([6]; read-out: EC50 Tas2r38 cat, calcium flux dose response, 22 h post-transfection): 47 µM | calcium flux response of human TAS2R43 [1]: did not respond | calcium flux response of cat Tas2r43 [8]: did not respond | EC50 [7]: 1.1 µM

SMILES: O=C1NS(=O)(=O)c2ccccc21 [Saccharin, saccharin sodium salt hydrate]
calcium flux response of cat Tas2r43 [8]: did not elicit a response

SMILES: CCCN(CCC)S(=O)(=O)c1ccc(C(=O)O)cc1 [probenecid]
probenecid effect on human TAS2R31 response to saccharin [9]: stimulation of flux | probenecid effect on human TAS2R38 response to PTC [5, 10]: failed to induce a calcium flux; also recorded: inhibited completely | probenecid effect on cat Tas2r38 response to PTC [6, 10]: failed to induce a calcium flux; also recorded: inhibited completely | probenecid effect on human TAS2R43 response to aloin [1, 11]: inhibited | probenecid effect on human TAS2R43 response to denatonium [1, 12]: inhibited | probenecid effect on cat Tas2r43 response to aloin [2, 11]: inhibited | probenecid effect on cat Tas2r43 response to denatonium [2, 12]: inhibited

— article PMC4453034, “A functional comparison of the domestic cat bitter receptors Tas2r38 and Tas2r43 with their human orthologs” (BMC Neuroscience, 2015)
